Where a name gives a salt, the structure may show the parent alone.
System: aorta rings
Test: Vasorelaxant action in vitro (phenylephrine-contracted rabbit aorta rings, organ bath)
Settings: Oryctolagus cuniculus; concentration needed to reduce the phenylephrine contraction of rabbit aorta rings by 50%
Experimental: B-1. Vasorelaxant Action In Vitro
Rabbits are stunned by a blow to the neck and exsanguinated. The aorta is removed, freed from adhering tissue and divided into rings of width 1.5 mm, which are placed individually under prestress into 5 ml organ baths with carbogen-sparged Krebs-Henseleit solution at 37° C. having the following composition (each mM): sodium chloride 119; potassium chloride: 4.8; calcium chloride dihydrate: 1; magnesium sulfate heptahydrate: 1.4; potassium dihydrogenphosphate: 1.2; sodium hydrogencarbonate: 25; glucose: 10. The contractile force is determined with Statham UC2 cells, amplified and digitalized using A/D transducers (DAS-1802 HC, Keithley Instruments Munich), and recorded in parallel on linear recorders. To obtain a contraction, phenylephrine is added to the bath cumulatively in increasing concentration. After several control cycles, the substance to be studied is added in increasing dosage each time in every further run, and the magnitude of the contraction is compared with the magnitude of the contraction attained in the last preceding run. This is used to calculate the concentration needed to reduce the magnitude of the control value by 50% (IC50 value). The standard administration volume is 5 μl; the DMSO content in the bath solution corresponds to 0.1%.

Structure (SMILES) | IC50
COC(=O)N1NC(=O)Nc2nc(-c3nn(Cc4ccccc4F)c4ncccc34)nc(N)c21 [Example 105, Methyl 8-amino-6-[1-(2-fluorobenzyl)-1H-pyrazolo[3,4-b]pyridin-3-yl]-3-oxo-3,4-dihydropyrimido[4,5-e][1,2,4]triazine-1(2H)-carboxylate] | 402 nM
Cn1c(=O)[nH]c2nc(-c3nn(Cc4ccccc4F)c4ncccc34)nc(N3CCC3)c21 [Example 112, 6-(Azetidin-1-yl)-2-[1-(2-fluorobenzyl)-1H-pyrazolo[3,4-b]pyridin-3-yl]-7-methyl-7,9-dihydro-8H-purin-8-one] | 1350 nM
Cc1nc(-c2nn(Cc3ccccc3F)c3ncccc23)nc2[nH]c(=O)[nH]c12 [Example 119, 2-[1-(2-Fluorobenzyl)-1H-pyrazolo[3,4-b]pyridin-3-yl]-6-methyl-7,9-dihydro-8H-purin-8-one] | 735 nM
CC(C)(C)Cn1c(=O)[nH]c2nc(-c3nn(Cc4ccccc4F)c4ncccc34)ncc21 [Example 122, 7-(2,2-Dimethylpropyl)-2-[1-(2-fluorobenzyl)-1H-pyrazolo[3,4-b]pyridin-3-yl]-7,9-dihydro-8H-purin-8-one] | 42 nM
O=c1[nH]c2nc(-c3nn(Cc4ccccc4F)c4ncccc34)ncc2n1Cc1ccccc1F [Example 124, 7-(2-fluorobenzyl)-2-[1-(2-fluorobenzyl)-1H-pyrazolo[3,4-b]pyridin-3-yl]-7,9-dihydro-8H-purin-8-one] | 87 nM
Cn1c(=O)[nH]c2nc(-c3nn(Cc4ccccc4F)c4ncccc34)nc(C#CC(C)(C)O)c21 [Example 135, 2-[1-(2-Fluorobenzyl)-1H-pyrazolo[3,4-b]pyridin-3-yl]-6-(3-hydroxy-3-methylbut-1-yn-1-yl)-7-methyl-7,9-dihydro-8H-purin-8-one] | 264 nM
Cn1c(=O)[nH]c2nc(-c3nn(Cc4ccccc4F)c4ncccc34)nc(C(C)(C)O)c21 [Example 136, 2-[1-(2-Fluorobenzyl)-1H-pyrazolo[3,4-b]pyridin-3-yl]-6-(2-hydroxypropan-2-yl)-7-methyl-7,9-dihydro-8H-purin-8-one] | 114 nM
O=c1[nH]c2nc(-c3nn(Cc4ccccc4F)c4ncccc34)ncc2n1CCN1CCOCC1 [Example 142, 2-[1-(2-Fluorobenzyl)-1H-pyrazolo[3,4-b]pyridin-3-yl]-7-[2-(morpholin-4-yl)ethyl]-7,9-dihydro-8H-purin-8-one] | 98 nM
O=c1[nH]c2nc(-c3nn(Cc4ccccc4F)c4ncccc34)ncc2n1C1CCN(CC(F)F)CC1 [Example 145, 7-[1-(2,2-Difluoroethyl)piperidin-4-yl]-2-[1-(2-fluorobenzyl)-1H-pyrazolo[3,4-b]pyridin-3-yl]-7,9-dihydro-8H-purin-8-one] | 171 nM
CS(=O)(=O)CCn1c(=O)[nH]c2nc(-c3nn(Cc4ccccc4F)c4ncc(F)cc34)ncc21 [Example 146, 2-[5-Fluoro-1-(2-fluorobenzyl)-1H-pyrazolo[3,4-b]pyridin-3-yl]-7-[2-(methylsulfonyl)ethyl]-7,9-dihydro-8H-purin-8-one] | 421 nM
O=c1[nH]c2nc(-c3nn(Cc4ccccc4F)c4ncccc34)ncc2n1C1CNC1 [Example 147, 7-(Azetidin-3-yl)-2-[1-(2-fluorobenzyl)-1H-pyrazolo[3,4-b]pyridin-3-yl]-7,9-dihydro-8H-purin-8-one hydrochloride] | 580 nM
O=c1[nH]c2nc(-c3nn(Cc4ccccc4F)c4ncccc34)ncc2c(=O)n1CC(F)(F)F [Example 149, 7-[1-(2-Fluorobenzyl)-1H-pyrazolo[3,4-b]pyridin-3-yl]-3-(2,2,2-trifluoroethyl)pyrimido[4,5-d]pyrimidine-2,4(1H,3H)-dione] | 462 nM
O=c1[nH]c(=O)c2cnc(-c3nn(Cc4ccccc4F)c4ncccc34)nc2[nH]1 [Example 150, 7-[1-(2-Fluorobenzyl)-1H-pyrazolo[3,4-b]pyridin-3-yl]pyrimido[4,5-d]pyrimidine-2,4(1H,3H)-dione] | 479 nM
CCc1nc(=O)c2cnc(-c3nn(Cc4ccccc4F)c4ncccc34)nc2[nH]1 [Example 153, 2-Ethyl-7-[1-(2-fluorobenzyl)-1H-pyrazolo[3,4-b]pyridin-3-yl]pyrimido[4,5-d]pyrimidin-4(1H)-one] | 1300 nM

— patent US9096592B2, “Bicyclic aza heterocycles, and use thereof” (BAYER INTELLECTUAL PROPERTY GMBH, priority 2010, dated 2015)
